These results are taken from patent US12559492B2, “BRAF degraders” (C4 Therapeutics, Inc., priority 2020, dated 2026).

The assay has as its target BRAF^V600E protein (Homo sapiens, UniProt P15056, V600E). The experiment in a line: HiBiT cellular BRAF V600E degradation assay. It counts as cell-based. To be noted: 24 h incubation; for DC50: A375.10 cells (HiBiT tag knocked in at N-terminal of BRAF V600E), concentration at which 50% of total cellular BRAF V600E is degraded; for Emax: read-out: HiBit 24 h Emax.
Setting [1] is: A375.10 cells, Emax = amount of residual protein remaining in the cell after compound treatment.

Chain of BRAF^V600E protein (P15056 whole entry V600E): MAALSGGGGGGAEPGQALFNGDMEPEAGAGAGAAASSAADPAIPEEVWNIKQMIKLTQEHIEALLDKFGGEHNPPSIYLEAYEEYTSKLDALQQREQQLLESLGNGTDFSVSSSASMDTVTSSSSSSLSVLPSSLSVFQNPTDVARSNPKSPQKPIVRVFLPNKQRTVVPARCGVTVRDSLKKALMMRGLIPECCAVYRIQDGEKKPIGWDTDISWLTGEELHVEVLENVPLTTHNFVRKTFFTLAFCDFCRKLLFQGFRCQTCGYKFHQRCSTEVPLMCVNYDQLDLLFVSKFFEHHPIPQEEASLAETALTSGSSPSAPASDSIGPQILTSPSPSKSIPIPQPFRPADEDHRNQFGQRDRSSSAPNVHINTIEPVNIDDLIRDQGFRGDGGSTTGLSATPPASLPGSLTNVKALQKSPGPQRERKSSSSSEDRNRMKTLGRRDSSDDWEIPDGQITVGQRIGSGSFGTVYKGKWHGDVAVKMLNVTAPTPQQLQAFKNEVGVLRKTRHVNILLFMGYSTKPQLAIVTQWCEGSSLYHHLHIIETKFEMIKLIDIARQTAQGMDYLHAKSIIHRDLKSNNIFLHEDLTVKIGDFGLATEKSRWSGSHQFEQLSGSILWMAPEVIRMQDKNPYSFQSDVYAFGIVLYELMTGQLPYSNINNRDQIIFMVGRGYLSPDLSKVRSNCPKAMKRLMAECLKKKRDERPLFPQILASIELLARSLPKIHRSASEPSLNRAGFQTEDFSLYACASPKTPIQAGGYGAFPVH

Broadly, the DC50 is the concentration giving 50% degradation. For orientation: Emax means the greatest response seen or fitted, relative to the assay's reference. In the case of `CCN(C)S(=O)(=O)Nc1ccc(F)c(C(=O)c2c[nH]c3ncc(-c4cnc(N5CCN(C(=O)CN6CCC(c7ccc(NC8CCC(=O)NC8=O)cc7)CC6)CC5)nc4)cc23)c1F` (centres unmarked) [Example A10, 5-[2-[4-[2-[4-[4-[(2,6-Dioxopiperidin-3-yl)amino]phenyl]piperidin-1-yl]acetyl]piperazin-1-yl]pyrimidin-5-yl]-3-[3-[[ethyl(methyl)sulfamoyl]amino]-2,6-difluorobenzoyl]-1H-pyrrolo[2,3-b]pyridine], the 50% degradation concentration (DC50) was found to be 0.003 µM. The Emax under setting [1] came out at 8%.
The like results for `CCN(C)S(=O)(=O)Nc1ccc(F)c(C(=O)c2c[nH]c3ncc(-c4ccc(N5CCN(C(=O)CN6CCN(c7ccc(NC8CCC(=O)NC8=O)cc7)CC6)CC5)nc4)cc23)c1F` (centres unmarked) [Example A11, 5-[6-[4-[2-[4-[4-[(2,6-Dioxopiperidin-3-yl)amino]phenyl]piperazin-1-yl]acetyl]piperazin-1-yl]pyridin-3-yl]-3-[3-[[ethyl(methyl)sulfamoyl]amino]-2,6-difluorobenzoyl]-1H-pyrrolo[2,3-b]pyridine] were, in that order, 0.00671 µM and 11.6%.
The like results for `CCN(C)S(=O)(=O)Nc1ccc(F)c(C(=O)c2c[nH]c3ncc(-c4ccc(CN5CCN(C(=O)CN6CCN(c7ccc(NC8CCC(=O)NC8=O)cc7)CC6)CC5)nc4)cc23)c1F` (centres unmarked) [Example A12, 5-[6-[[4-[2-[4-[4-[(2,6-Dioxopiperidin-3-yl)amino]phenyl]piperazin-1-yl]acetyl]piperazin-1-yl]methyl]pyridin-3-yl]-3-[3-[[ethyl(methyl)sulfamoyl]amino]-2,6-difluorobenzoyl]-1H-pyrrolo[2,3-b]pyridine] were, in that order, 0.074 µM and 24%.
For `CCN(C)S(=O)(=O)Nc1ccc(F)c(C(=O)c2c[nH]c3ncc(-c4ccc(CN5CCN(C6CCN(C(=O)CN7CCC(c8ccc(NC9CCC(=O)NC9=O)cc8)CC7)CC6)CC5)cc4)cc23)c1F` (centres unmarked) [Example A13, 5-[4-[[4-[1-[2-[4-[4-[(2,6-Dioxopiperidin-3-yl)amino]phenyl]piperidin-1-yl]acetyl]piperidin-4-yl]piperazin-1-yl]methyl]phenyl]-3-[3-[[ethyl(methyl)sulfamoyl]amino]-2,6-difluorobenzoyl]-1H-pyrrolo[2,3-b]pyridine] the same measures were 0.091 µM and 23%.
Take `CCN(C)S(=O)(=O)Nc1ccc(F)c(C(=O)c2c[nH]c3ncc(-c4ccc(N5CCN(C(=O)CN6CCC(c7ccc(OC8CCC(=O)NC8=O)cc7)CC6)CC5)cc4)cc23)c1F` (centres unmarked) [Example A14, 5-[4-[4-[2-[4-[4-(2,6-Dioxopiperidin-3-yl)oxyphenyl]piperidin-1-yl]acetyl]piperazin-1-yl]phenyl]-3-[3-[[ethyl(methyl)sulfamoyl]amino]-2,6-difluorobenzoyl]-1H-pyrrolo[2,3-b]pyridine]: the half-maximal degradation concentration (DC50) is 0.0106 µM. Under setting [1], the maximal response (Emax) worked out at 9.74%.
In turn, `CCN(C)S(=O)(=O)Nc1ccc(F)c(C(=O)c2c[nH]c3ncc(-c4ccc(N5CCN(C(=O)CCCN6CCC(c7ccc(OC8CCC(=O)NC8=O)cc7)CC6)CC5)cc4)cc23)c1F` (centres unmarked) [Example A15, 5-[4-[4-[4-[4-[4-(2,6-Dioxopiperidin-3-yl)oxyphenyl]piperidin-1-yl]butanoyl]piperazin-1-yl]phenyl]-3-[3-[[ethyl(methyl)sulfamoyl]amino]-2,6-difluorobenzoyl]-1H-pyrrolo[2,3-b]pyridine] had a 50% degradation concentration (DC50) of 0.024 µM. For the same molecule, the maximum response (Emax) under setting [1] was 14%.
The like results for `CCN(C)S(=O)(=O)Nc1ccc(F)c(C(=O)c2c[nH]c3ncc(-c4cnc(N5CCN(C(=O)CN6CCN(c7ccc(NC8CCC(=O)NC8=O)cc7)CC6)CC5)nc4)cc23)c1F` (centres unmarked) [Example A16, 5-[2-[4-[2-[4-[4-[(2,6-Dioxopiperidin-3-yl)amino]phenyl]piperazin-1-yl]acetyl]piperazin-1-yl]pyrimidin-5-yl]-3-[3-[[ethyl(methyl)sulfamoyl]amino]-2,6-difluorobenzoyl]-1H-pyrrolo[2,3-b]pyridine] were, in that order, 0.008 µM and 11%.
For `CCN(C)S(=O)(=O)Nc1ccc(F)c(C(=O)c2c[nH]c3ncc(-c4ccc(N5CCN(C(=O)CCCN6CCC(c7ccc(NC8CCC(=O)NC8=O)cc7)CC6)CC5)nc4)cc23)c1F` (centres unmarked) [Example A17, 5-[6-[4-[4-[4-[4-[(2,6-Dioxopiperidin-3-yl)amino]phenyl]piperidin-1-yl]butanoyl]piperazin-1-yl]pyridin-3-yl]-3-[3-[[ethyl(methyl)sulfamoyl]amino]-2,6-difluorobenzoyl]-1H-pyrrolo[2,3-b]pyridine] the same measures were 0.044 µM and 14%.
The like results for `CCN(C)S(=O)(=O)Nc1ccc(F)c(C(=O)c2c[nH]c3ncc(-c4cnc(N5CCN(C(=O)CCCN6CCC(c7ccc(NC8CCC(=O)NC8=O)cc7)CC6)CC5)nc4)cc23)c1F` (centres unmarked) [Example A18, 5-[2-[4-[4-[4-[4-[(2,6-Dioxopiperidin-3-yl)amino]phenyl]piperidin-1-yl]butanoyl]piperazin-1-yl]pyrimidin-5-yl]-3-[3-[[ethyl(methyl)sulfamoyl]amino]-2,6-difluorobenzoyl]-1H-pyrrolo[2,3-b]pyridine] were, in that order, 0.042 µM and 15%.
With `CCN(C)S(=O)(=O)Nc1ccc(F)c(C(=O)c2c[nH]c3ncc(-c4ccc(CN5CCC(C(=O)N6CCN(c7ccc(OC8CCC(=O)NC8=O)cc7)CC6)C5)cc4)cc23)c1F` (centres unmarked) [Example A19, 5-[4-[[3-[4-[4-(2,6-Dioxopiperidin-3-yl)oxyphenyl]piperazine-1-carbonyl]pyrrolidin-1-yl]methyl]phenyl]-3-[3-[[ethyl(methyl)sulfamoyl]amino]-2,6-difluorobenzoyl]-1H-pyrrolo[2,3-b]pyridine], the DC50 was 0.084 µM. For the same molecule, under setting [1], the maximal response (Emax) came out at 19%.
Regarding `CCN(C)S(=O)(=O)Nc1ccc(F)c(C(=O)c2c[nH]c3ncc(-c4ccc(CN5CCC(C(=O)N6CCC(c7ccc(OC8CCC(=O)NC8=O)cc7)CC6)C5)cc4)cc23)c1F` (centres unmarked) [Example A20, 5-[4-[[3-[4-[4-(2,6-Dioxopiperidin-3-yl)oxyphenyl]piperidine-1-carbonyl]pyrrolidin-1-yl]methyl]phenyl]-3-[3-[[ethyl(methyl)sulfamoyl]amino]-2,6-difluorobenzoyl]-1H-pyrrolo[2,3-b]pyridine], the 50% degradation concentration (DC50) worked out at 0.138 µM. Further, the Emax under setting [1] turned out to be 24%.
In turn, `CCN(C)S(=O)(=O)Nc1ccc(F)c(C(=O)c2c[nH]c3ncc(-c4ccc(CN5CCN(CC(=O)N6CCC(c7ccc(NC8CCC(=O)NC8=O)cc7)CC6)CC5)cc4)cc23)c1F.O=C(O)C(F)(F)F` (centres unmarked) [Example A21, 5-[4-[[4-[2-[4-[4-[(2,6-Dioxopiperidin-3-yl)amino]phenyl]piperidin-1-yl]-2-oxoethyl]piperazin-1-yl]methyl]phenyl]-3-[3-[[ethyl(methyl)sulfamoyl]amino]-2,6-difluorobenzoyl]-1H-pyrrolo[2,3-b]pyridine;2,2,2-trifluoroacetic acid] registered a 50% degradation concentration (DC50) of 0.021 µM. For the same molecule, under setting [1], the “HiBit 24 h Emax” value is 13%.
Take `CCN(C)S(=O)(=O)Nc1ccc(F)c(C(=O)c2c[nH]c3ncc(-c4ccc(CN5CCN(C(=O)CN6CCC(c7ccc(OC8CCC(=O)NC8=O)cc7)CC6)CC5)cc4)cc23)c1F` (centres unmarked) [Example A22, 5-[4-[[4-[2-[4-[4-(2,6-Dioxopiperidin-3-yl)oxyphenyl]piperidin-1-yl]acetyl]piperazin-1-yl]methyl]phenyl]-3-[3-[[ethyl(methyl)sulfamoyl]amino]-2,6-difluorobenzoyl]-1H-pyrrolo[2,3-b]pyridine]: the 50% degradation concentration (DC50) came out at 0.077 µM. The maximal effect (Emax) under setting [1] amounted to 20%.
